Converted amounts (≈) assume the structure as drawn.
Key:
in vitro = details: human
B. cereus (ATCC 10876) = test: microbe, parasite or virus in culture; assay type: cell-based; details: Bacillus cereus, ATCC10876; 16 h at 37 °C; read-out: MIC B. cereus
[1] = system: B. anthracis ovine strain (animal isolate); test: microbe, parasite or virus in culture; assay type: cell-based; details: Bacillus anthracis; 16 h at 37 °C; read-out: MIC B. anthracis Ovine
E. faecalis (ATCC 29212) = test: microbe, parasite or virus in culture; assay type: cell-based; details: Enterococcus faecalis, ATCC29212; 16 h at 37 °C; read-out: MIC E. faecalis
[2] = system: B. anthracis Sterne strain; test: microbe, parasite or virus in culture; assay type: cell-based; details: Bacillus anthracis; 16 h at 37 °C; read-out: MIC B. anthracis Sterne
[3] = system: B. anthracis pathogenic strain (human isolate); test: microbe, parasite or virus in culture; assay type: cell-based; details: Bacillus anthracis; 16 h at 37 °C; read-out: MIC B. anthracis Pathogenic
B. cereus ATCC 14579 = test: microbe, parasite or virus in culture; assay type: cell-based, Bacillus cereus; details: Bacillus cereus, ATCC14579

SMILES | IC50 at 48 h (in vitro) [µM] | MIC (B. cereus (ATCC 10876)) [µM] | MIC [1] [µM] | MIC (E. faecalis (ATCC 29212)) [µM] | MIC [2] [µM] | MIC [3] [µM] | IC50 at 24 h (in vitro) [µM] | MBC (B. cereus ATCC 14579) [µg/mL] | MIC (B. cereus ATCC 14579) [µg/mL]
CCCCCCCCCCCCO[C@@H]1O[C@H](C)C[C@H](O)[C@H]1O [Compound 12] | 50 | > 405 | > 405 | > 405 | > 405 | > 405 |  |  | 
CCCCCCCCCCCCO[C@H]1O[C@H](C)[C@@H](O)[C@H](O)[C@@H]1O [Compound 16] |  | 48 (≈ 16 µg/mL) | > 48 | > 48 | 24 (≈ 7.98 µg/mL) | 24 (≈ 7.98 µg/mL) |  |  | 
CCCCCCCCCCCCS[C@@H]1C[C@@H](O)[C@H](O)CO1 [Compound 19] |  | 25 (≈ 7.96 µg/mL) | 50 (≈ 15.9 µg/mL) | 50 (≈ 15.9 µg/mL) | 50 (≈ 15.9 µg/mL) | 25 (≈ 7.96 µg/mL) |  |  | 
CCCCCCCCCCCC[C@@H]1C[C@@H](O)[C@H](O)CO1 [Compound 21, 1-(2-Deoxy-α-D-threo-pentopyranosyl)dodecane] | 100 | 28 (≈ 8.02 µg/mL) | 28 (≈ 8.02 µg/mL) | 56 (≈ 16 µg/mL) | 28 (≈ 8.02 µg/mL) | 28 (≈ 8.02 µg/mL) | > 100 |  | 
CCCCCCCCCCCC[C@@H]1C[C@@H](O)[C@H](O)[C@@H](CO)O1 [Compound 14] |  | 51 (≈ 16.1 µg/mL) | 51 (≈ 16.1 µg/mL) | 51 (≈ 16.1 µg/mL) | 104 (≈ 32.9 µg/mL) | 51 (≈ 16.1 µg/mL) |  |  | 
CCCCCCCCCCCCO[C@H]1C[C@H](O)[C@@H](O)CO1 [Compound 7] | 100 |  | 52 (≈ 15.7 µg/mL) | 52 (≈ 15.7 µg/mL) | 26 (≈ 7.86 µg/mL) | 52 (≈ 15.7 µg/mL) | > 100 | 16 (≈ 52.9 µM) | 16 (≈ 52.9 µM)
CCCCCCCCCCCCO[C@H]1C[C@@H](O)[C@H](O)CO1 [Compound 18] | > 50 | 52 (≈ 15.7 µg/mL) | 52 (≈ 15.7 µg/mL) | 52 (≈ 15.7 µg/mL) | 26 (≈ 7.86 µg/mL) | 26 (≈ 7.86 µg/mL) | > 100 |  | 
CCCCCCCCCCCCO[C@@H]1C[C@H](O)[C@@H](O)[C@H](C)O1 [Compound 5] |  | 202 (≈ 63.9 µg/mL) | 101 (≈ 32 µg/mL) | 101 (≈ 32 µg/mL) | 202 (≈ 63.9 µg/mL) | 101 (≈ 32 µg/mL) |  |  | 
CCCCCCCCCCCCO[C@@H]1C[C@@H](O)[C@H](O)[C@@H](C)O1 [Compound 9] | 50 | 25 (≈ 7.91 µg/mL) | 50 (≈ 15.8 µg/mL) | 50 (≈ 15.8 µg/mL) | 50 (≈ 15.8 µg/mL) | 50 (≈ 15.8 µg/mL) | 100 |  | 
CCCCCCCCCCCCO[C@H]1C[C@H](O)[C@H](O)[C@H](C)O1 [Compound 4] | 50 | 25 (≈ 7.91 µg/mL) | 25 (≈ 7.91 µg/mL) | > 50 | 25 (≈ 7.91 µg/mL) | 25 (≈ 7.91 µg/mL) | 100 |  | 
CCCCCCCCCCCCO[C@@H]1C[C@H](O)[C@@H](O)CO1 [Compound 8] |  |  | 52 (≈ 15.7 µg/mL) | 52 (≈ 15.7 µg/mL) | 26 (≈ 7.86 µg/mL) | 26 (≈ 7.86 µg/mL) |  |  | 
CCCCCCCCCCCCS[C@H]1C[C@H](O)[C@@H](O)[C@H](C)O1 [Compound 2] | > 50 | 48 (≈ 16 µg/mL) | 48 (≈ 16 µg/mL) | > 48 | 24 (≈ 7.98 µg/mL) | 48 (≈ 16 µg/mL) | > 50 |  | 
CCCCCCCCCCCCO[C@@H]1O[C@@H](C)[C@H](O)[C@@H](O)[C@H]1O [Compound 6] |  |  | 48 (≈ 16 µg/mL) | 48 (≈ 16 µg/mL) | 24 (≈ 7.98 µg/mL) | 24 (≈ 7.98 µg/mL) |  | 32 (≈ 96.2 µM) | 32 (≈ 96.2 µM)
CCCCCCCCCCCCO[C@H]1O[C@H](CO)C[C@H](O)[C@H]1O [Compound 15] |  | 51 (≈ 17 µg/mL) | 51 (≈ 17 µg/mL) | 51 (≈ 17 µg/mL) | 51 (≈ 17 µg/mL) | 51 (≈ 17 µg/mL) |  |  | 
CCCCCCCCCCCC[C@H]1C[C@H](O)[C@@H](O)[C@H](C)O1 [Compound 3] | 100 | 27 (≈ 8.11 µg/mL) | 54 (≈ 16.2 µg/mL) | > 54 | 27 (≈ 8.11 µg/mL) | 54 (≈ 16.2 µg/mL) | > 100 |  | 
CCCCCCCCCCCCO[C@H]1O[C@H](C)C[C@H](O)[C@H]1O [Compound 11, dodecyl 4,6-dideoxy-α-D-xylo-hexopyranoside] | 50 | 12.6 (≈ 3.99 µg/mL) | 12.6 (≈ 3.99 µg/mL) | 12.6 (≈ 3.99 µg/mL) | 12.6 (≈ 3.99 µg/mL) | 12.6 (≈ 3.99 µg/mL) |  |  | 

From article PMC6242839 (Nature Communications, 2018)
